Experimental data taken from US8554305B2, “Method and apparatus for providing pulses inhalation of 17O2 for magnetic resonance imaging of cerebral metabolism” (The Trustees of the University of Pennsylvania, priority 2007, dated 2013).

Legend:
[1] = Serial arterial blood sampling and ^17O NMR spectroscopy of serum during and after 1 minute of ^17O2 delivery; assay type: in vivo, pig
Description: During imaging, arterial blood sampling was performed on several occasions. An optimized protocol was developed and repeated. An arterial catheter was placed under ultrasound guidance into the femoral artery in the large animal fluoroscopy suite. Approximately 2 cc of blood was collected over 3-5 seconds into each Vacutainer Serum Separator Tube (Becton-Dickinson, #367983) at a rate of one sample each 10 seconds for the first 12 samples and then 60 seconds each for six more samples. Four control samples were taken before the experiment began. The tubes used are designed to reseal immediately after needle puncture. Their ability to remain sealed was tested by taking several tubes at random, creating a strong negative pressure inside the tube with a vacuum pump attached to a needle, and then repeated puncture with larger diameter needles than used for blood sampling. The pressure inside the tubes was checked after over a dozen punctures and had changed less than 10%.
A concern is that water ^17O will exchange with ambient CO2 through bicarbonate ion, a very fast reaction when catalyzed by carbonic anhydrase as in whole blood (Mills G A, Urey H C. The Kinetics of Isotopic Exchange between Carbon Dioxide, Bicarbonate Ion, Carbonate Ion and Water. J Am Chem Soc 1940; 62 (5):1019-1026). To minimize this effect, serum was separated by centrifugation soon after the experiment. Tubes were then frozen at −20 C and kept sealed until the time of analysis. Centrifugation places a gel between the serum and red blood cells in these tubes to fully separate the two. This procedure serves to protect the samples in two ways. […]
An 11.7T Bruker DMX400 Avance Spectrometer equipped with a 1H/X nucleus decoupler probe tuned to ^17O was used to measure 1 mL of each sample loaded into 5 mm ID NMR tubes just before analysis. Spectra were recorded without lock at room temp. […]
Blood sampling was performed during scanning on two separate occasions. […] Serum concentration of H2^17O was calculated by integrating the H2^17O peak obtained by ^17O spectroscopy of the blood samples taken at the given time points. […]

[2] = measurements made in tissue phantoms; cited from earlier work
[3] = T1ρ relaxivity in H2^17O doped phosphate buffered saline phantoms; assay type: physicochemical; settings: spin lock amplitude 100 Hz, 1.5T
Description: The ability of the sequence to detect changes in H2^17O concentration was measured by imaging six 15 mL conical tubes filled with 1× Phosphate Buffered Saline doped with H2^17O (Isotec, Miamisberg, Ohio) in steps of 5 mM from 20 mM (natural abundance) to 45 mM. These tubes were sealed and placed into a 9 cm jar filled with water. A receive only loop coil was placed around the jar and used in combination with the body transmit coil. Cross-sectional images of the tubes were acquired with a spin lock amplitude of 100 Hz and spin lock times of 200, 400, 600, 800, and 1000 msec. Imaging parameters are: FoV 90 mm^2, ST 5 mm, TR/TE 10.4/5.2 ms, Matrix 128^2, BW 130 Hz/Px, α=180°.
The concentrations of the phantoms were determined experimentally according to the following equation:
[formula] Where fn is the natural abundance [H2^17O], S is the signal from a pixel or ROI with natural abundance (NA) [H2^17O] or [H2^17O] added (^17O) taken as a proton density weighted image to account for coil sensitivity or when T1ρ pre-encoded (T1ρ). R1ρ is the relaxivity due to H2^17O and TSL is the spin lock time.
FIG. 12 provides cross-sectional images of 15 mL conical tubes filled with phosphate buffered saline and doped with increasing amounts of H2^17O to concentrations from 20 mM (natural abundance) to 45 mM (25 mM added).

[4] = test system: pig brain; experiment: Pulsed ^17O2 inhalation (2 breaths, 40% enrichment) with T1ρ-weighted MRI of pig brain at 1.5 Tesla; assay type: in vivo; settings: 70 Kg pig; ventricle signal normalized to whole brain
Description: To further test the apparatus 100, a 70 Kg Yorkshire pig was anesthetized with intramuscular doses of ketamine (25 mg/Kg) and xylazine (2.5 mg/Kg) and orally intubated. General anesthesia was maintained throughout the experiment with intravenous doses of ketamine (1-2 mg/Kg/hr) and diazepam (0.5-1 mg/Kg/hr). Once placed in the MRI scanner 114 in the prone position, the endotracheal tube was connected to the circuit and mechanical ventilation commenced in volume control mode with a tidal volume of 16.2 ml/Kg, a respiratory rate of 6 breaths/min, I:E ratio of 1:1 and zero end-expiratory pressure. After collecting baseline images on room air, the source valve was switched to 100% O2. After 5 minutes to allow for denitrogenation, further baseline images were obtained while breathing 100% oxygen. […]
Overlay of the signal decreases, ranging from 0% decrease to 1% decrease, an average of 40-50 seconds after the start of the ^17O2 breaths, as determined by indirect T1ρ imaging with a spin-lock sequence. […]
The time course of arterial ^17O2 concentrations, estimated from a model of alveolar gas dilution (appendix), is shown in FIG. 5a. […] Inspiratory tidal volume is measured from the calibrated output of the inhalation pump 102. […]

delay between the start of ^17O2 delivery and the start of wash-in in arterial blood ([1]; 19.8 kg pig, second experiment) | delay between the start of ^17O2 delivery and the start of wash-in in arterial blood ([1]; 40.8 kg pig, 80% N2/20% O2 (70% ^17O enriched) for 60 seconds, femoral artery serum) | time when recirculation begins ([1]; arterial blood sampling and analysis of mH2^17O content, pigs) | R1ρ(100 Hz) [3] | SMILES | R1ρ, relaxation enhancement of tissue due to H2^17O [2] | delay of decrease in scaled signal in the cerebral ventricle after the initial inhalation of ^17O2 [4]
~70 s | about 90 seconds | 60 to 80 s | 1.37e-05 mM⁻¹ ms⁻¹ | [17OH2] [H2^17O] | 5.91*10^−6 (μmol/g water)^−1 ms^−1 | 
 |  |  |  | O=O [^17O2] |  | about 110 seconds
